Data as given in patent US6951916B2, “Melanocortin receptor ligands” (The Procter & Gamble Company, priority 1999, dated 2005).

Key:
MC-4 receptor = molecular target: T1, MC-4 receptor (Homo sapiens, UniProt P32245); assay: BioTrak cAMP direct enzymeimmunoassay in HEK cells stably transfected with MC-1, MC-3 or MC-4 receptors (% cAMP relative to NDP-MSH); format: cell-based; conditions: % of maximal cAMP produced by NDP-MSH; concentrations 1×10^−8 to 1×10^−4 molar; HEK cells transfected with MC-1, MC-3 or MC-4
T1 construct: expressed in transfected cells; host or cells: HEK cells (stably transfected)
T1 sequence (P32245 whole entry): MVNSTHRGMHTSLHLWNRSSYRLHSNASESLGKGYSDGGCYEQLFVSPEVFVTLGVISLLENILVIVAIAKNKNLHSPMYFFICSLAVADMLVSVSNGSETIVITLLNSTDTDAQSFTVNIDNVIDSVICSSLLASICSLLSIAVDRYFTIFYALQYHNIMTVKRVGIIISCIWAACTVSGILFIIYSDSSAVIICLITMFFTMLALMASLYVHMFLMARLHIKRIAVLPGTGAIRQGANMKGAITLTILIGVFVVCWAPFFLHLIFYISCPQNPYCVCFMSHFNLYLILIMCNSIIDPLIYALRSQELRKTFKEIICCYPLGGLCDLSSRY
Description: The NDP-MSH standard was evaluated for the level of c-AMP release at each receptor and the values for the test samples were expressed as a % of the maximal amount produced by NDP-MSH. 1R, 3R, and 4R correspond respectively to the MC-1, MC-3, and MC-4 receptors. The % c-AMP produced by each compound was measured at concentrations from 1×10^−8 to 1×10^−4 molar.
As used herein, “MC-4 agonist” and “MC-3 agonist” refers to a compound with affinity for the MC-4 receptor or MC-3 receptor, respectively, that results in measurable biological activity in cells, tissues, or organisms which contain the MC-4 or MC-3 receptor. […] One particularly useful assay is the BioTrak TM cAMP direct enzymeimmunoassay (EIA) system from Amersham Pharmacia Biotech, which quantitates the cAMP response of cells to MC ligands. This system allows the simple quantitation of total cellular cAMP measurement in cells exposed to selective ligands. Briefly summarized: HEK cells stably transfected with the MC-1, MC-3 or MC-4 receptors are plated into 96 well microtiter plates and grown overnight. Cells are dosed with the appropriate MC ligand for 1 hour and then lysed. A fraction of the lysed cell extract is transferred to the assay plate. The ELISA assay is performed according to kit instructions. Each plate contains a series of cAMP standards for calculating a standard curve, as well as a full MC agonist as a positive control for each MC receptor. cAMP activity is calculated as a % of the maximum cAMP activity of the full MC agonist control.
A compound's selectivity is determined from a comparison of its EC50 values at the relevant receptors being referenced. As used herein, use of the term “selective over the other MC receptors” means selective with respect to all of the MC-1, MC-2 and MC-5 receptors. For example, a compound having an EC50 of 8 nM at the MC-4 receptor and an EC50 of ≧80 nM at the MC-1, MC-2 and MC-5 receptors has a selectivity ratio for the MC-4 receptor over the other MC receptors of at least 1:10. Additionally, it will be recognized that selectivity may also refer to one of the MC-1, MC-2 or MC-5 receptors individually. For example, a compound having an EC50 of 8 nM at the MC-4 receptor and an EC50 of 80 nM at the MC-1 receptor has a selectivity ratio for the MC-4 receptor over the MC-1 receptor of 1:10. Such a compound is selective over the MC-1 receptor, regardless of its EC50 value for MC-2 or MC-5. Selectivity is described in more detail below and may be determined by using, for example, the software Prism v 2.0 which is available from GraphPad, Inc.

[1] = Example A: treatment of an obese human subject to incur weight loss; format: in vivo; conditions: obese human 130 kg; intravenous injection once each day for 6 months, 15 ml aqueous solution with 5 mg/ml compound
Description: An obese human subject weighing 130 kg is treated by this method to incur weight loss. Specifically, once each day for a period of 6 months, the subject is administered, via intravenous injection, 15 ml of an aqueous solution comprising the following: […]

Row | Substance | selectivity shown by % cAMP activity at various concentrations at MC-1R, MC-3R and MC-4R (MC-4 receptor) | weight loss at the end of the treatment period [1]
1 | Ac-NIeDHfRWGK-NH2 [reference compound] | non-selective agonist | 
2 | Ac-SYSNIeEHfRWGKPV-NH2 [reference compound] | non-selective agonist | 
3 | Ac-[DYfRWGK]-NH2 [Example 2] | selectivity of this analog for MC-4R over the MC-3R and MC-1R | 
4 | Ac-aDYfRWG(Orn)-NH2 [Example 17] | selectivity of this analog for MC-4R over MC-1R | 
5 | Ac-aDYfRWGK-NH2 [Example 16] | selectivity of this analog for MC-4R over the MC-3R and MC-1R | 
6 | Ac-aDYfRWK-NH2 [Example 14] | selectivity of this analog for MC-4R over MC-1R | 
7 | Ac-aEYfRWG(Orn)-NH2 | selectivity of this analog for MC-4R over MC-1R | 
8 | Ac-a[DYfRWG(Orn)]-NH2 [Example 31] | selectivity of this analog for MC-4R over MC-1R | 
9 | Ac-a[DYfRWGK]-NH2 [Example 1] |  | measurable weight loss
10 | Ac-a[EYfRWG(Orn)]-NH2 [Example 4] | selectivity of this analog for MC-4R over the MC-3R and MC-1R | 
11 | Ac-a[EYfRWGK]-NH2 [Example 5] | selectivity of this analog for MC-4R over the MC-3R and MC-1R | 
